Test results reported in US12030877B2, “Prostaglandin E synthase inhibitors and methods for utilizing the same” (University of Kentucky Research Foundation, priority 2016, dated 2024).
Read-outs that look alike come from different tables or passages of the source.

Experiments:
mPGES-1 = target: T1, mPGES-1 (Homo sapiens, UniProt O14684); assay: mPGES-1 enzyme activity assay (PGE2 enzyme immunoassay), human enzyme; assay type: biochemical; parameters: made in house; host or cells: FreeStyle 293-F cells, crude microsomal preparation; settings: for IC50: recombinant microsomal enzyme, means ± SD, triplicate; for inhibition at 10 µM: compound at a concentration of 10 μM, read-out: % inhibition of the compound against mPGES-1, Human enzyme
T1 sequence (O14684 1-152): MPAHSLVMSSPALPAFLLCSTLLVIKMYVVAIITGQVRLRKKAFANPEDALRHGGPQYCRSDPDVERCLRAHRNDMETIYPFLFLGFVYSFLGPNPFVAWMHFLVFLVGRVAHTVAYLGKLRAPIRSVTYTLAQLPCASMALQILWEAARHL
Experimental: (§1) Studies were conducted to characterize the inhibitory activity against recombinant mPGES-1 of the compounds synthesized in accordance with Examples 1-4, and disclosed herein.
(§2) Briefly, FreeStyle 293-F cells were cultured following manufacturer's manual in FreeStyle 293 expression medium on orbit rotate shaker in 8% CO2 incubator at 37° C. Cells were transfected with 1.5 μg/mL of mPGES-1/pcDNA3 construct using FreeStyle Max reagent at a cell density of 1×10^6 for 2 days. Transfected cells were collected, washed, and sonicated in TSES buffer (15 mM Tris-HCl, pH 8.0 plus 0.25 M sucrose, 0.1 mM EDTA and 1 mM DTT) on ice. The broken cells were first centrifuged at 12,500×g for 10 min. The supernatant was further centrifuged at 105,000×g for 1 hr at 4° C. The pellet was washed and homogenized in PBS buffer. The crude microsomal mPGES-1 preparation was aliquoted and stored at −80° C. The crude protein concentration was 8 mg/mL.
(§3) The enzyme activity assays were performed on ice in 1.5 ml microfuge tubes by using the expressed mPGES-1. The reaction mixture contained: 0.2 M Na2HPO4/NaH2PO4, pH 7.2, 10 μL; 0.1 M GSH, 2.5 μL; diluted microsomal enzyme (80 μg/mL), 1 μL; PGH2 (0.31 mM in DMF), 5 μL; 1 μL inhibitor; and H2O in a final reaction volume of 100 μL. PGH2 was stored in dry ice and used to initiate the reaction.
(§4) Compounds were incubated with the enzyme for 15 min at room temperature before the addition of cold PGH2 (1 μM final) to initiate the enzyme reaction. After 30 s, 10 μL of SnCl2 (40 mg/mL) in ethanol was added to stop the reaction. The nonenzymatic conversion of PGH2 to PGE2 was performed in the same buffer devoid of enzyme. The reaction mixture was placed on ice until PGE2 production was determined by the PGE2 enzyme immunoassay as described earlier. IC50 values of the inhibitors were calculated by using the GraphPad Prism 4.0 program. The results are set forth in the tables provided in Examples 7-10.

mPGES-1 Mouse enzyme = target: T2, mPGES-1 Mouse enzyme (Mus musculus, UniProt Q9JM51); assay: mPGES-1 enzyme activity assay (PGE2 enzyme immunoassay), mouse enzyme; assay type: biochemical; settings: for IC50: recombinant microsomal enzyme, means ± SD, triplicate; for inhibition at 10 µM: compound at a concentration of 10 μM, read-out: % inhibition of the compound against mPGES-1, Mouse enzyme
T2 construct: made in house; host or cells: FreeStyle 293-F cells, crude microsomal preparation
T2 sequence (Q9JM51 1-153): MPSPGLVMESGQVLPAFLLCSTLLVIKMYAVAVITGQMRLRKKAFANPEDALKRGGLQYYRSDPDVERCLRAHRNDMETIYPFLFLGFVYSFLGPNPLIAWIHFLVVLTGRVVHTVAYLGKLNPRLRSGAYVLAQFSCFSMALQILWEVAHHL
Experimental: as §1, §2, §3, §4

[1] = read-out: IC50 against mPGES-1, Human enzyme
[2] = IC50 against mPGES-1, Mouse enzyme
[3] = read-out: IC50 against mPGES-1, Mouse enzyme
[4] = IC50 against mPGES-1, Human enzyme

| Compound | IC50 (mPGES-1 Mouse enzyme; [2]) [nM] | IC50 (mPGES-1; [4]) [nM] | other results |
| --- | --- | --- | --- |
| O=C1NC(=O)C(=Cc2ccc(OCCCCC3CCCCC3)cc2)C(=O)N1 [Compound I-01] | 7080 ± 627 |  | IC50 (mPGES-1; [1]): 622 ± 121 nM |
| O=C1NC(=O)C(=Cc2ccc(OCCCCC3CCCCC3)c(Cl)c2)C(=O)N1 [Compound I-02] |  |  | IC50 (mPGES-1; [1]): 33 ± 3 nM; IC50 (mPGES-1 Mouse enzyme; [3]): 157 ± 31 nM |
| Cc1cc(C=C2C(=O)NC(=O)NC2=O)ccc1OCCCCC1CCCCC1 [Compound I-04] |  | 82 ± 10 | inhibition at 10 µM (mPGES-1 Mouse enzyme): 25% |
| O=C1NC(=O)C(=Cc2ccc(OCCCCC3CCCCC3)c(O)c2)C(=O)N1 [Compound I-05] | 2900 ± 293 | 116 ± 17 |  |
| COc1cc(C=C2C(=O)NC(=O)NC2=O)ccc1OCCCCC1CCCCC1 [Compound I-06] | 1460 ± 209 | 121 ± 20 |  |
| CCOc1cc(C=C2C(=O)NC(=O)NC2=O)ccc1OCCCCC1CCCCC1 [Compound I-07] | 2410 ± 339 | 186 ± 26 |  |
| COc1cc(C=C2C(=O)NC(=O)NC2=O)cc(Cl)c1OCCCCC1CCCCC1 [Compound I-09] | 360 ± 56 | 22 ± 7 |  |
| COc1cc(C=C2C(=O)NC(=O)NC2=O)cc(Br)c1OCCCCC1CCCCC1 [Compound I-10] | 292 ± 47 | 69 ± 16 |  |
| COc1cc(C=C2C(=O)NC(=O)NC2=O)cc(I)c1OCCCCC1CCCCC1 [Compound I-11] | 359 ± 50 | 54 ± 12 |  |
| COc1ccc(C=C2C(=O)NC(=O)NC2=O)cc1OCCCCC1CCCCC1 [Compound I-12] | 727 ± 109 | 152 ± 53 |  |
| O=C1NC(=O)C(=Cc2cc(Cl)ccc2OCCCCC2CCCCC2)C(=O)N1 [Compound I-13] |  |  | IC50 (mPGES-1; [1]): 87 ± 27 nM; inhibition at 10 µM (mPGES-1 Mouse enzyme): 28% |
| O=C1NC(=O)C(=Cc2cc(Br)ccc2OCCCCC2CCCCC2)C(=O)N1 [Compound I-14] |  | 96 ± 14 | inhibition at 10 µM (mPGES-1 Mouse enzyme): 38% |
| O=C1NC(=O)C(=Cc2cc(I)ccc2OCCCCC2CCCCC2)C(=O)N1 [Compound I-15] | 12100 ± 1960 | 135 ± 18 |  |
| O=C1NC(=O)C(=Cc2c(OCCCCC3CCCCC3)ccc3ccccc23)C(=O)N1 [Compound I-16] | 7040 ± 1850 | 154 ± 18 |  |
| O=C1NC(=O)C(=Cc2ccc(OCCCCC3CCCCC3)c3ccccc23)C(=O)N1 [Compound I-17] | 3700 ± 562 | 171 ± 34 |  |
| CN1C(=O)C(=Cc2ccc(OCCCCC3CCCCC3)c(Cl)c2)C(=O)N(C)C1=O [Compound I-18] |  | 272 ± 30 | inhibition at 10 µM (mPGES-1 Mouse enzyme): 8% |
| CN1C(=O)C(=Cc2ccc(OCCCCC3CCCCC3)c(Br)c2)C(=O)N(C)C1=O [Compound I-19] |  | 427 ± 55 | inhibition at 10 µM (mPGES-1 Mouse enzyme): 24% |
| CN1C(=O)C(=Cc2ccc(OCCCCC3CCCCC3)c([N+](=O)[O-])c2)C(=O)N(C)C1=O [Compound I-20] |  | 561 ± 55 | inhibition at 10 µM (mPGES-1 Mouse enzyme): 15% |
| O=C1NC(=O)C(=Cc2ccc(OCCCCC3CCCCC3)c(Cl)c2)C(=O)N1 [Compound I-21] | 415 ± 120 | 28 ± 3 |  |
| O=C1NC(=O)C(=Cc2ccc(OCCCC3CCCCC3)c([N+](=O)[O-])c2)C(=O)N1 [Compound I-26] | 373 ± 51 | 156 ± 30 |  |
| CN1C(=O)C(=Cc2ccc(OCCCC3CCCCC3)c(Cl)c2)C(=O)N(C)C1=O [Compound I-27] |  | 240 ± 20 | inhibition at 10 µM (mPGES-1 Mouse enzyme): 29% |
| CN1C(=O)C(=Cc2ccc(OCCCC3CCCCC3)c(Br)c2)C(=O)N(C)C1=O [Compound I-28] |  | 127 ± 14 | inhibition at 10 µM (mPGES-1 Mouse enzyme): 30% |

| Compound | IC50 (mPGES-1 Mouse enzyme; [2]) [nM] | IC50 (mPGES-1; [4]) [nM] | other results |
| --- | --- | --- | --- |
| CN1C(=O)C(=Cc2ccc(OCCCC3CCCCC3)c([N+](=O)[O-])c2)C(=O)N(C)C1=O [Compound I-29] |  | 188 ± 21 | inhibition at 10 µM (mPGES-1 Mouse enzyme): 41% |
| O=C1NC(=O)C(=Cc2ccc(OCCCC3CCCCC3)c([N+](=O)[O-])c2)C(=O)N1 [Compound I-32] | 428 ± 58 | 73 ± 12 |  |
| O=C1NC(=O)C(=Cc2ccc(OCCCCc3ccccc3)c(Cl)c2)C(=O)N1 [Compound I-33] | 2790 ± 525 | 73 ± 10 |  |
| O=C1NC(=O)C(=Cc2ccc(OCCCOc3ccccc3)c(Cl)c2)C(=O)N1 [Compound I-34] | 8130 ± 1010 | 349 ± 40 |  |
| O=C1NC(=O)C(=Cc2ccc(OCCCOc3ccc(-c4ccccc4)cc3)c(Cl)c2)C(=O)N1 [Compound I-35] |  | 337 ± 34 | inhibition at 10 µM (mPGES-1 Mouse enzyme): 17% |
| O=C1NC(=O)C(=Cc2ccc(OCCCOc3ccc4ccccc4c3)c(Cl)c2)C(=O)N1 [Compound I-36] |  | 365 ± 59 | inhibition at 10 µM (mPGES-1 Mouse enzyme): 19% |
| O=C1NC(=O)C(=Cc2ccc(OCCC3CCCCC3)c([N+](=O)[O-])c2)C(=O)N1 [Compound I-37] | 2390 ± 425 | 517 ± 68 |  |
| O=C1NC(=O)C(=Cc2ccc(OCC3CCCCC3)c([N+](=O)[O-])c2)C(=O)N1 [Compound I-38] |  | 1110 ± 104 | inhibition at 10 µM (mPGES-1 Mouse enzyme): 42% |
| CCCCCOc1ccc(C=C2C(=O)NC(=O)NC2=O)cc1[N+](=O)[O-] [Compound I-39] | 6310 ± 1140 | 460 ± 64 |  |
| CCCCCCCOc1ccc(C=C2C(=O)NC(=O)NC2=O)cc1[N+](=O)[O-] [Compound I-40] | 734 ± 119 | 232 ± 54 |  |
| CCCCCCCCCOc1ccc(C=C2C(=O)NC(=O)NC2=O)cc1[N+](=O)[O-] [Compound I-41] | 1300 ± 163 | 188 ± 43 |  |
| O=C1NC(=O)C(Cc2ccc(OCCCCC3CCCCC3)c(Cl)c2)C(=O)N1 [Compound I-42] | 1330 ± 151 | 133 ± 20 |  |
| O=C1NC(=O)C(Cc2ccc(OCCCCC3CCCCC3)c(Br)c2)C(=O)N1 [Compound I-43] | 1090 ± 211 | 97 ± 13 |  |
| O=C1NC(=O)C(Cc2ccc(OCCCCC3CCCCC3)c([N+](=O)[O-])c2)C(=O)N1 [Compound I-44] | 3350 ± 560 | 136 ± 23 |  |
| CCCCCCOc1ccc(C=C(C#N)C#N)cc1[N+](=O)[O-] [Compound V-04] |  |  | IC50 (mPGES-1; [1]): 285 ± 40 nM; IC50 (mPGES-1 Mouse enzyme; [3]): 754 ± 73 nM |
| CCCCCCCOc1ccc(C=C(C#N)C#N)cc1[N+](=O)[O-] [Compound V-05] |  |  | IC50 (mPGES-1; [1]): 135 ± 16 nM; IC50 (mPGES-1 Mouse enzyme; [3]): 776 ± 217 nM |
| CCCCCCCCOc1ccc(C=C(C#N)C#N)cc1[N+](=O)[O-] [Compound V-06] |  |  | IC50 (mPGES-1; [1]): 89 ± 12 nM; IC50 (mPGES-1 Mouse enzyme; [3]): 716 ± 120 nM |
| CCCCCCCOc1ccc(C=C(C#N)C#N)cc1 [Compound V-10] |  |  | IC50 (mPGES-1; [1]): 136 ± 13 nM; IC50 (mPGES-1 Mouse enzyme; [3]): 1390 ± 255 nM |
| CCCCCCOc1c(Br)cc(C=C(C#N)C#N)cc1OC [Compound V-13] |  |  | IC50 (mPGES-1; [1]): 181 ± 33 nM; IC50 (mPGES-1 Mouse enzyme; [3]): 1630 ± 250 nM |
| CCCCCCCCOc1ccc(-c2nn(-c3ccc(Cl)cc3)cc2C=C(C#N)C#N)cc1 [VII-26] |  |  | inhibition at 10 µM (mPGES-1): 52% |
| CCCCCCCCCCOc1ccc(-c2nn(-c3ccccc3)cc2C=C(C#N)C#N)cc1 [VII-27] |  |  | inhibition at 10 µM (mPGES-1): 49% |
| CCCCCCCCCCOc1ccc(-c2nn(-c3ccc(Cl)cc3)cc2C=C(C#N)C#N)cc1 [VII-28] |  |  | inhibition at 10 µM (mPGES-1): 47% |
